Results taken from PMC13198257, “An aerosolized dual-action autotaxin inhibitor-PPARγ agonist for the treatment of pulmonary fibrosis” (Cell Reports Medicine, 2026).

Tests used:
[1] = test system: BLM-induced fibrotic mouse PCLSs; test: Fibrotic mouse precision-cut lung slices (PCLS); assay type: cell-based; conditions: 30 μΜ, 72 h
Method: Fourteen days after administration, mice were euthanized and lungs were perfused with PBS. Lungs were subsequently inflated through the trachea with pre-warmed (40-42 °C) low melting-point agarose. Following agarose solidification, the left lateral lobe was excised and sectioned into 300μm-thick slices using a vibratome machine. Lung slices were placed in 12- or 24-well culture plates containing complete DMEM supplemented with 1% penicillin/streptomycin, and 0.1% amphotericin B, and maintained at 37 °C, 5% CO2 and ≥95% relative humidity. After an overnight equilibration period, slices were treated with either GLPG-1690 (30μM) or compound 5 (30μM) for 72 h. Culture medium was refreshed every 24 h throughout the treatment period. For downstream gene expression analysis, three slices were pooled per sample for RNA extraction. Control PCLS were generated from saline-treated mice. […] Fluorophore-conjugated secondary antibody (1:500) was applied for 1 h at room temperature, and nuclei were counterstained with DAPI. Brightfield and fluorescence imaging were performed using the Olympus VS200 slide scanner.

[2] = test system: NHLFs; test: TGF-β-induced normal human lung fibroblasts (NHLFs): fibrotic markers and PPARγ target genes; assay type: cell-based; conditions: 75 μΜ, TGFβ 10 ng/ml
Method: Normal human lung fibroblasts (NHLFs), clone 832, were isolated from the adjacent healthy tissue of a patient undergoing open lung surgery for cancer at the Department of Pulmonology, Bichat-Claude Bernard Hospital, Paris/France; studies were approved by the Committee for Personal Protection (CPP)—Ile de France 1 (#0911932). The patient provided written consent to the use of his/her sample for research purposes; no compensation was provided. NHLFs were cultured in DMEM supplemented with 10% FBS, 1% penicillin/streptomycin, and 0.1% amphotericin B at 37 °C, 5% CO2 and ≥95% relative humidity.
For experiments, NHLFs were seeded in 6-well plates at a density of 2 × 10^5 cells per well. After overnight serum starvation, cells were pre-treated with EL244 or vehicle (concentrations specified in the corresponding figures) for 1 h, followed by stimulation with TGFβ (10 ng/mL) for 24 h.
Cells were washed twice with ice-cold 1× PBS and lysed in RIPA buffer containing 50 mM Tris-HCl (pH 7.4), 1 mM EDTA, 150 mM NaCl, 0.25% (w/v) sodium deoxycholate, 1% (v/v) Triton X-100, 0.1% (w/v) SDS and 1 mM PMSF. Equal amounts of protein extracts (30 μg) were separated into 10% SDS-PAGE gels and subsequently electro-transferred onto nitrocellulose membranes. Membranes were blocked for 1 h at room temperature in 1X TBS-T containing 5% non-fat dry milk. […] Immunoreactive protein bands were detected using ECL.

[3] = test system: liver; test: Serum ALT/AST after 2 weeks of inhaled EL244; assay type: in vivo, mice; conditions: 2 weeks inhaled 15 mg/kg o.d.
Method: Figure S7. Inhaled prophylactic EL244 administration attenuates BLM-induced pulmonary fibrosis. Related to […]
EL244 was administered via inhalation at 15 mg/kg, once daily, from one day before to 14 days after bleomycin (BLM) administration (day 0). The compound was dissolved in 15% Kolliphor in saline. The vehicle (15% Kolliphor in saline) was administered to both the SAL and BLM control groups.
(A) Weight change in the different mouse groups during the 2 weeks of the pulmonary fibrosis experiment.
(B-D) Respiratory mechanics assessed using the FlexiVent system (n=6,8,7). Parameters include mean static lung compliance (B), mean respiratory system compliance (C) and mean total lung capacity (D).
(E) Total protein concentration in BALFs, as determined with the Bradford assay (n=6,8,7).
(F) Inflammatory cell numbers in BALFs, as counted with a hematocytometer (n=6,8,7).
(G) Soluble collagen levels in the BALFs were detected with the direct red assay (n=6,8,7). […]
(J) Quantification of fibrosis severity in H&E-stained lung sections via Ashcroft scoring (n=6,8,7). […]
Following normality testing, statistical significance was assessed with one-way ANOVA and post-hoc Tukey’s test (B, C, D, E, K/ALT, K/ALT/AST) or Welch ANOVA and post-hoc Games-Howell test (F, G, H, J) or Kruskal Wallis and post-hoc Dunn’s test (K/AST); */**/***/**** denote p<0.05/0.01/0.001/0.0001, respectively.

| SMILES | Col1a1 mRNA expression [1] | Fn1 mRNA expression [1] | Lung architecture, fibrotic lesions [1] | Col1a1 and Acta2 (aSMA) mRNA and protein [2] | PPARγ target genes and PPARγ expression [2] | Liver toxicity (ALT/AST levels) [3] |
| --- | --- | --- | --- | --- | --- | --- |
| O=C1NC(=O)C(Cc2ccc(OCCN3CCN(C(=O)OCc4cc(Cl)cc(Cl)c4)CC3)cc2)S1 (stereo not drawn) [Compound 5, 3,5-dichlorobenzyl4-(2-(4-((2,4-dioxothiazolidin-5-yl)methyl)phenoxy)ethyl)piperazine-1-carboxylate] | decreasing | decreasing | improved the lung architecture | – | – | – |
| O=C1NC(=O)C(Cc2ccc(OCCC3CCN(C(=O)OCc4cc(Cl)cc(Cl)c4)CC3)cc2)S1 (stereo not drawn) [EL244, 3,5-dichlorobenzyl 4-(2-(4-((2,4-dioxothiazolidin-5-yl)methyl)phenoxy)ethyl)piperidine-1-carboxylate] | – | – | – | suppressed | stimulating the expression of PPARγ target genes | did not cause any appreciable toxicity in the liver |
